Data taken from ChEMBL document CHEMBL3137667, “[Drug-induced liver injury; fourteenth updated edition of the bibliographic database of liver injuries and related drugs]” (Gastroenterol Clin Biol, 2004).

Tests used:
[1] = Highest frequency of moderate liver toxicity observed during clinical trials, expressed as a percentage. [column '% BIOL' in source]; conditions: human
[2] = Highest frequency of acute liver toxicity observed during clinical trials, expressed as a percentage. [column '% AIGUE' in source]; conditions: human
[3] = Times to onset, minimal and maximal, observed in the indexed observations. [column 'DELAI' in source]; conditions: human
[4] = Proposed mechanism(s) of liver damage. [column 'MEC' in source]; conditions: human
[5] = human, serum
[6] = human, serum; remark: listed apart in the source
[7] = human
[8] = human; remark: listed apart in the source
[9] = human; remark: listed apart in the source
[10] = human, serum, 4383 h
[11] = human; remark: listed apart in the source
[12] = human; remark: listed apart in the source
[13] = human; remark: listed apart in the source
[14] = human; remark: listed apart in the source
[15] = human; remark: listed apart in the source
[16] = human; remark: listed apart in the source
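For Hepatotoxicity (association with vascular disease) in this document: count of indexed literature references reporting vascular liver injury in humans, e.g. peliosis hepatitis, hepatic veno-occlusive disease or Budd-Chiari syndrome.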
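For Hepatotoxicity (benign tumour) in this document: value is a count of indexed literature references citing a benign tumour confirmed by histopathology.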
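For Hepatotoxicity (choleostasis) in this document: human cholestatic liver injury, shown by histopathology or by peak ALT or AST elevation over alkaline phosphatase ratio below 2, value counts indexed literature reports.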
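For Hepatotoxicity (chronic liver disease) in this document: chronic liver injury confirmed by histopathology or persistently raised serum aminotransferase activity beyond 6 months, value given as the count of indexed literature references.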
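For Hepatotoxicity (cirrhosis) in this document: value is a count of indexed literature references reporting cirrhosis confirmed by histopathology.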
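For Hepatotoxicity (cytolytic) in this document: human cytolytic liver injury, shown by histopathology or by a ratio above 5 of peak ALT or AST elevation to alkaline phosphatase elevation, value counts indexed references.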
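For Hepatotoxicity (granulomatous hepatitis) in this document: value is a count of indexed literature references reporting granulomatous liver disease confirmed by histopathology.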
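For Hepatotoxicity (malignant tumour) in this document: malignant tumour confirmed by histopathology, value gives the count of indexed literature references reporting it.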
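For Hepatotoxicity (severe hepatitis) in this document: human clinical data: severe hepatitis, meaning potentially life-threatening liver failure or clinically observed cases, the value counts how many indexed literature references report it.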
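For Hepatotoxicity (steatosis) in this document: steatosis confirmed by histopathology, value is the count of indexed references.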

## CC(=O)Nc1cc([As](=O)(O)O)ccc1O [ACETARSONE]
[1]
  Hepatotoxicity (moderate): 0%
[2]
  Hepatotoxicity (acute): 0%
[3]
  Hepatotoxicity (time to onset): 2 cures - 3 cures
[4]
  Hepatotoxicity (mechanism): Allergic
[5]
  Hepatotoxicity (moderate): 0
[6]
  Hepatotoxicity (acute): 2
[7]
  Hepatotoxicity (cytolytic): 0
[8]
  Hepatotoxicity (choleostasis): 0
[9]
  Hepatotoxicity (severe hepatitis): 0
[10]
  Hepatotoxicity (chronic liver disease): 0
[11]
  Hepatotoxicity (cirrhosis): 0
[12]
  Hepatotoxicity (granulomatous hepatitis): 0
[13]
  Hepatotoxicity (association with vascular disease): 0
[14]
  Hepatotoxicity (steatosis): 0
[15]
  Hepatotoxicity (malignant tumour): 0
[16]
  Hepatotoxicity (benign tumour): 0

## COc1ccc(C(CN(C)C)C2(O)CCCCC2)cc1 (stereo not drawn) [VENLAFAXINE]
[1]
  Hepatotoxicity (moderate): 2.8%
[2]
  Hepatotoxicity (acute): 0%
[3]
  Hepatotoxicity (time to onset): 12 days - 6 months
[4]
  Hepatotoxicity (mechanism): Allergic
[5]
  Hepatotoxicity (moderate): 3
[6]
  Hepatotoxicity (acute): 4
[7]
  Hepatotoxicity (cytolytic): 3
[8]
  Hepatotoxicity (choleostasis): 1
[9]
  Hepatotoxicity (severe hepatitis): 0
[10]
  Hepatotoxicity (chronic liver disease): 0
[11]
  Hepatotoxicity (cirrhosis): 0
[12]
  Hepatotoxicity (granulomatous hepatitis): 0
[13]
  Hepatotoxicity (association with vascular disease): 0
[14]
  Hepatotoxicity (steatosis): 0
[15]
  Hepatotoxicity (malignant tumour): 0
[16]
  Hepatotoxicity (benign tumour): 0

## C[C@@H]1C[C@H]2[C@@H]3CCC4=CC(=O)C=C[C@]4(C)C3=CC[C@]2(C)[C@H]1C(=O)CN1CCN(c2cc(N3CCCC3)nc(N3CCCC3)n2)CC1 [TIRILAZAD]
[1]
  Hepatotoxicity (moderate): 8.5%
[2]
  Hepatotoxicity (acute): 0%
[3]
  Hepatotoxicity (time to onset): 3 days - 10 days
[4]
  Hepatotoxicity (mechanism): Dose-dependant
[5]
  Hepatotoxicity (moderate): 2
[6]
  Hepatotoxicity (acute): 0
[7]
  Hepatotoxicity (cytolytic): 0
[8]
  Hepatotoxicity (choleostasis): 0
[9]
  Hepatotoxicity (severe hepatitis): 0
[10]
  Hepatotoxicity (chronic liver disease): 0
[11]
  Hepatotoxicity (cirrhosis): 0
[12]
  Hepatotoxicity (granulomatous hepatitis): 0
[13]
  Hepatotoxicity (association with vascular disease): 0
[14]
  Hepatotoxicity (steatosis): 0
[15]
  Hepatotoxicity (malignant tumour): 0
[16]
  Hepatotoxicity (benign tumour): 0

## CC(C)[C@@H](CC[C@@H](C)[C@H]1CC[C@H]2[C@@H]3[C@H](O)C[C@H]4C[C@@H](NCCCNCCCCN)CC[C@]4(C)[C@H]3CC[C@]12C)OS(=O)(=O)O [SQUALAMINE]
[1]
  Hepatotoxicity (moderate): 0%
[2]
  Hepatotoxicity (acute): 38.5%
[3]
  Hepatotoxicity (time to onset): 2 days - 5 days
[4]
  Hepatotoxicity (mechanism): Dose-dependant
[5]
  Hepatotoxicity (moderate): 1
[6]
  Hepatotoxicity (acute): 2
[7]
  Hepatotoxicity (cytolytic): 2
[8]
  Hepatotoxicity (choleostasis): 1
[9]
  Hepatotoxicity (severe hepatitis): 0
[10]
  Hepatotoxicity (chronic liver disease): 0
[11]
  Hepatotoxicity (cirrhosis): 0
[12]
  Hepatotoxicity (granulomatous hepatitis): 0
[13]
  Hepatotoxicity (association with vascular disease): 0
[14]
  Hepatotoxicity (steatosis): 0
[15]
  Hepatotoxicity (malignant tumour): 0
[16]
  Hepatotoxicity (benign tumour): 0

## Nc1nc(=O)[nH]cc1F [FLUCYTOSINE]
[1]
  Hepatotoxicity (moderate): 55%
[2]
  Hepatotoxicity (acute): 2%
[3]
  Hepatotoxicity (time to onset): 2 weeks - 2 months
[4]
  Hepatotoxicity (mechanism): Dose-dependant
[5]
  Hepatotoxicity (moderate): 22
[6]
  Hepatotoxicity (acute): 5
[7]
  Hepatotoxicity (cytolytic): 3
[8]
  Hepatotoxicity (choleostasis): 3
[9]
  Hepatotoxicity (severe hepatitis): 2
[10]
  Hepatotoxicity (chronic liver disease): 0
[11]
  Hepatotoxicity (cirrhosis): 0
[12]
  Hepatotoxicity (granulomatous hepatitis): 0
[13]
  Hepatotoxicity (association with vascular disease): 0
[14]
  Hepatotoxicity (steatosis): 0
[15]
  Hepatotoxicity (malignant tumour): 0
[16]
  Hepatotoxicity (benign tumour): 0

## COc1cc(/C=C/C(=O)O)ccc1O [FERULATE]
[1]
  Hepatotoxicity (moderate): 0%
[2]
  Hepatotoxicity (acute): 0%
[3]
  Hepatotoxicity (time to onset): 2 days - 5 years
[4]
  Hepatotoxicity (mechanism): Dose-dependant
[5]
  Hepatotoxicity (moderate): 0
[6]
  Hepatotoxicity (acute): 2
[7]
  Hepatotoxicity (cytolytic): 1
[8]
  Hepatotoxicity (choleostasis): 1
[9]
  Hepatotoxicity (severe hepatitis): 0
[10]
  Hepatotoxicity (chronic liver disease): 1
[11]
  Hepatotoxicity (cirrhosis): 2
[12]
  Hepatotoxicity (granulomatous hepatitis): 0
[13]
  Hepatotoxicity (association with vascular disease): 0
[14]
  Hepatotoxicity (steatosis): 0
[15]
  Hepatotoxicity (malignant tumour): 0
[16]
  Hepatotoxicity (benign tumour): 0

## C[C@H](CCc1ccccc1)NC[C@H](O)c1ccc(O)c(C(N)=O)c1 [DILEVALOL]
[1]
  Hepatotoxicity (moderate): 2%
[2]
  Hepatotoxicity (acute): 0%
[3]
  Hepatotoxicity (time to onset): 2 weeks
[4]
  Hepatotoxicity (mechanism): Allergic
[5]
  Hepatotoxicity (moderate): 1
[6]
  Hepatotoxicity (acute): 1
[7]
  Hepatotoxicity (cytolytic): 1
[8]
  Hepatotoxicity (choleostasis): 0
[9]
  Hepatotoxicity (severe hepatitis): 1
[10]
  Hepatotoxicity (chronic liver disease): 0
[11]
  Hepatotoxicity (cirrhosis): 0
[12]
  Hepatotoxicity (granulomatous hepatitis): 0
[13]
  Hepatotoxicity (association with vascular disease): 0
[14]
  Hepatotoxicity (steatosis): 0
[15]
  Hepatotoxicity (malignant tumour): 0
[16]
  Hepatotoxicity (benign tumour): 0

## CNC=O
[1]
  Hepatotoxicity (moderate): 75%
[2]
  Hepatotoxicity (acute): 0%
[3]
  Hepatotoxicity (time to onset): 3 days - 1 week
[4]
  Hepatotoxicity (mechanism): Dose-dependant
[5]
  Hepatotoxicity (moderate): 13
[6]
  Hepatotoxicity (acute): 4
[7]
  Hepatotoxicity (cytolytic): 1
[8]
  Hepatotoxicity (choleostasis): 0
[9]
  Hepatotoxicity (severe hepatitis): 2
[10]
  Hepatotoxicity (chronic liver disease): 0
[11]
  Hepatotoxicity (cirrhosis): 0
[12]
  Hepatotoxicity (granulomatous hepatitis): 0
[13]
  Hepatotoxicity (association with vascular disease): 0
[14]
  Hepatotoxicity (steatosis): 0
[15]
  Hepatotoxicity (malignant tumour): 0
[16]
  Hepatotoxicity (benign tumour): 0

## CO/N=C(\C(=O)N[C@@H]1C(=O)N2C(C(=O)O)=C(COC(N)=O)CS[C@H]12)c1ccco1 [CEFUROXIME]
[1]
  Hepatotoxicity (moderate): 29.1%
[2]
  Hepatotoxicity (acute): 0%
[3]
  Hepatotoxicity (time to onset): 2 days
[4]
  Hepatotoxicity (mechanism): Allergic
[5]
  Hepatotoxicity (moderate): 8
[6]
  Hepatotoxicity (acute): 1
[7]
  Hepatotoxicity (cytolytic): 1
[8]
  Hepatotoxicity (choleostasis): 0
[9]
  Hepatotoxicity (severe hepatitis): 1
[10]
  Hepatotoxicity (chronic liver disease): 0
[11]
  Hepatotoxicity (cirrhosis): 0
[12]
  Hepatotoxicity (granulomatous hepatitis): 0
[13]
  Hepatotoxicity (association with vascular disease): 0
[14]
  Hepatotoxicity (steatosis): 0
[15]
  Hepatotoxicity (malignant tumour): 0
[16]
  Hepatotoxicity (benign tumour): 0

## CCOC(=O)CN[C@@H](C(=O)N1CC[C@H]1C(=O)NCc1ccc(/C(N)=N\O)cc1)C1CCCCC1 [XIMELAGATRAN]
[1]
  Hepatotoxicity (moderate): 9.8%
[2]
  Hepatotoxicity (acute): 6.8%
[3]
  Hepatotoxicity (time to onset): 1 month - 6 months
[4]
  Hepatotoxicity (mechanism): Dose-dependant
[5]
  Hepatotoxicity (moderate): 9
[6]
  Hepatotoxicity (acute): 3
[7]
  Hepatotoxicity (cytolytic): 0
[8]
  Hepatotoxicity (choleostasis): 0
[9]
  Hepatotoxicity (severe hepatitis): 0
[10]
  Hepatotoxicity (chronic liver disease): 0
[11]
  Hepatotoxicity (cirrhosis): 0
[12]
  Hepatotoxicity (granulomatous hepatitis): 0
[13]
  Hepatotoxicity (association with vascular disease): 0
[14]
  Hepatotoxicity (steatosis): 0
[15]
  Hepatotoxicity (malignant tumour): 0
[16]
  Hepatotoxicity (benign tumour): 0

## Cc1ccc(S(=O)(=O)NC(=O)NN2CC3CCCC3C2)cc1 (stereo not drawn) [GLICLAZIDE]
[1]
  Hepatotoxicity (moderate): 0%
[2]
  Hepatotoxicity (acute): 0%
[3]
  Hepatotoxicity (time to onset): 4 weeks - 5 weeks
[4]
  Hepatotoxicity (mechanism): Allergic
[5]
  Hepatotoxicity (moderate): 1
[6]
  Hepatotoxicity (acute): 3
[7]
  Hepatotoxicity (cytolytic): 2
[8]
  Hepatotoxicity (choleostasis): 1
[9]
  Hepatotoxicity (severe hepatitis): 0
[10]
  Hepatotoxicity (chronic liver disease): 0
[11]
  Hepatotoxicity (cirrhosis): 0
[12]
  Hepatotoxicity (granulomatous hepatitis): 0
[13]
  Hepatotoxicity (association with vascular disease): 0
[14]
  Hepatotoxicity (steatosis): 0
[15]
  Hepatotoxicity (malignant tumour): 0
[16]
  Hepatotoxicity (benign tumour): 0

## CO[C@H]1/C=C/O[C@@]2(C)Oc3c(C)c(O)c4c(c3C2=O)C2=NC3(CCN(CC(C)C)CC3)NC2=C(NC(=O)/C(C)=C\C=C\[C@H](C)[C@H](O)[C@@H](C)[C@@H](O)[C@@H](C)[C@H](OC(C)=O)[C@@H]1C)C4=O [RIFABUTIN]
[1]; Liver
  Hepatotoxicity (moderate): 7.1%
[2]; Liver
  Hepatotoxicity (acute): 0%
[3]
  Hepatotoxicity (time to onset): 2 weeks - 11 weeks
[4]; Liver
  Hepatotoxicity (mechanism): Dose-dependant
[5]
  Hepatotoxicity (moderate): 6
[6]
  Hepatotoxicity (acute): 2
[7]; Liver
  Hepatotoxicity (cytolytic): 1
[8]; Liver
  Hepatotoxicity (choleostasis): 0
[9]; Liver
  Hepatotoxicity (severe hepatitis): 1
[10]
  Hepatotoxicity (chronic liver disease): 0
[11]
  Hepatotoxicity (cirrhosis): 0
[12]; Liver
  Hepatotoxicity (granulomatous hepatitis): 0
[13]
  Hepatotoxicity (association with vascular disease): 0
[14]
  Hepatotoxicity (steatosis): 0
[15]
  Hepatotoxicity (malignant tumour): 0
[16]
  Hepatotoxicity (benign tumour): 0

## CNC(=O)c1c(I)c(C(=O)NCC(=O)Nc2c(I)c(C(=O)O)c(I)c(C(=O)NCCO)c2I)c(I)c(N(C)C(C)=O)c1I [IOXAGLIC ACID]
[1]
  Hepatotoxicity (moderate): 0%
[2]
  Hepatotoxicity (acute): 0%
[3]
  Hepatotoxicity (time to onset): 1 days
[4]
  Hepatotoxicity (mechanism): Allergic
[5]
  Hepatotoxicity (moderate): 0
[6]
  Hepatotoxicity (acute): 1
[7]
  Hepatotoxicity (cytolytic): 1
[8]
  Hepatotoxicity (choleostasis): 0
[9]
  Hepatotoxicity (severe hepatitis): 0
[10]
  Hepatotoxicity (chronic liver disease): 0
[11]
  Hepatotoxicity (cirrhosis): 0
[12]
  Hepatotoxicity (granulomatous hepatitis): 0
[13]
  Hepatotoxicity (association with vascular disease): 0
[14]
  Hepatotoxicity (steatosis): 0
[15]
  Hepatotoxicity (malignant tumour): 0
[16]
  Hepatotoxicity (benign tumour): 0
